Measurements reported in US4746675A, “External pharmaceutical composition” (Teijin Limited, priority 1983, dated 1988).

Tests used:
[1] = tested on: eye (cornea, iris, conjunctiva); test: primary eye irritation (Draize) in rabbits; type: in vivo, white native male rabbits; conditions: 2.4% soln, average of three rabbits
[2] = tested on: blood glucose level; test: blood glucose after intrarectal administration of hog insulin suppository to rabbits; type: in vivo, rabbit; conditions: for Percent decrease of the blood glucose level from that before the administration: hog insulin 9.6 units, intrarectal, rabbit
Description: Sixty parts by weight of fractionated coconut oil and 10 parts by weight of compound (168) or compound (173) were uniformly mixed, and then hog insulin was gradually added to form a uniform dispersion. The dispersion was filled in a gelatin capsule for suppositories to form a gelatin capsular suppository. These suppository contained 9.6 units of insulin. The suppository was intrarectally administered to a rabbit, and the blood glucose level after administration was measured by the glucose oxidase method.

[3] = tested on: serum calcium level; test: serum calcium after intrarectal administration of calcitonin composition to rats; type: in vivo, rat; conditions: versus the comparative suppository
From the text: Cacao butter (93 parts by weight) and 7 parts by weight of compound (168) or compound (173) were uniformly mixed, and (Asu^1.7)-eel calcitonin was gradually added and mixed to form a uniform composition. The composition was slightly warmed, and placed into a suppository container to form a suppository for rats having a diameter of about 3 mm and a length of about 6 mm. This suppository contained 0.7 MRC unit of calcitonin. The suppository was intrarectally administered to a rat, and the concentration of calcium in the blood serum after administration was measured by using a calcium measuring kit (made by Iatoron Co.).
Various […] were prepared from cacao butter, the various penetration enhancers shown in Table 12 and [Asu^1.7 ]-eel calcitonin, and tested in the same way as in Example 85.

[4] = tested on: carrageenan edema; test: carrageenan edema inhibiting effect of betamethasone valerate ointments; type: in vivo, rat; conditions: 0.15% betamethasone valerate, 9.85% Compound (168) or none
In short: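 Rat carrageenan paw edema: 0.1 ml of 1% carrageenan injected into the right hind paw of 150–175 g rats. Ointment containing 0.15 part betamethasone valerate plus penetration enhancer, 100 mg, applied to the inflamed site at 0.5, 1 and 2 h. Paw volume measured by mercury displacement at 0, 3, 5 and 6 h.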

[5] = concentration of indomethacin in rat blood after application of ointment to the back; conditions: versus the comparative ointments
Description: An ointment was prepared from 1 part by weight of indomethacin, 10 parts by weight of compound (168) and 89 parts by weight of a hydrophilic ointment (composed of 250 parts of white Vaseline, 220 parts by weight of stearyl alcohol, 120 parts by weight of propylene glycol, 15 parts by weight of sodium laurylsulfate, 0.25 part by weight of ethyl p-hydroxybenzoate, 0.15 part by weight of propyl p-hydroxybenzoate and a small amount of purified water). The back of a rat (body weight about 250 g) was cut by an electric hair-clipper, and 100 mg of the resulting ointment was applied by a finger to a circular unhaired portion, 4 cm in diameter. The blood was drawn from the tail of the rat periodically, and the concentration of indomethacin in the blood was determined periodically by high-performance liquid chromatography.
Various ointments were prepared from 1 part by weight of indomethacin, 10 parts of each of various penetration enhancers shown in Table 2 and the hydrophilic ointment, and tested as in Example 1.

[6] = concentration of cephalothin sodium in blood after intrarectal administration of suppository; type: in vivo, Beagle dog; conditions: versus the comparative suppository
Description: Eighty parts by weight of cacoa butter, 10 parts by weight of compound (168) and 10 parts by weight of cephalothin sodium were uniformly mixed and then slightly warmed. The mixture was filled in a suppository container to form a suppository containing 1 g of the mixture. The suppository was administered intrarectally to a Beagle dog, and the concentration of cephalothin sodium in the blood after administration was measured by the cup method.

[7] = tested on: serum calcium level; test: serum calcium after nasal administration of calcitonin nasal drop to rabbits; type: in vivo, New Zealand white male rabbit; conditions: for Percent decrease of the serum calcium level from before administration: [Asu^1.7]-eel calcitonin nasal drop, 15 units/50 μl, rabbit
Description: This nasal drop contained 15 units/50 μl of calcitonin. Fifty microliters of the nasal drop was administered to the nasal cavity of a New Zealand white male rabbit, and the concentration of calcium in the serum after administration was measured by using a calcium measuring kit (made by Iatron Co.).

CCCCCCCC/C=C\CCCCCCCC(=O)OCC(O)COC(=O)[C@@H]1CCC(=O)N1 (stereo partly drawn) [Compound (168), 2-hydroxy-3-oleoyloxy-1-pyroglutamyloxypropane]
36.8%: Percentage inhibition based on the control ([4]; 5 hrs)
5.2%: Percent decrease of the blood glucose level from that before the administration ([2]; 3 hrs)
0.9%: Percent decrease of the serum calcium level from before administration ([7]; 5 hrs)
19.7%: Percentage inhibition based on the control ([4]; 3 hrs)
1.8%: Percent decrease of the serum calcium level from before administration ([7]; 3 hrs)
2.0: Primary irritation score, Conjunctiva ([1]; 1 hour) | Primary irritation score, Total ([1]; 1 hour) | Primary irritation score, Conjunctiva ([1]; 3 hours) | Primary irritation score, Total ([1]; 3 hours)
1.3: Primary irritation score, Conjunctiva ([1]; 6 hours) | Primary irritation score, Total ([1]; 6 hours)
39.2%: Percentage inhibition based on the control ([4]; 6 hrs)
36.3%: Percent decrease of the blood glucose level from that before the administration ([2]; 1 hr)
better: absorption of insulin from the suppository ([2]; versus the comparative suppository) | absorption of calcitonin from the suppository [3] | absorption of indomethacin from the ointment [5] | absorption of cephalothin sodium from the suppository [6] | absorption of calcitonin from the nasal composition ([7]; versus the comparative composition)
6.1%: Percent decrease of the serum calcium level from before administration ([7]; 1 hr)
32.8%: Percent decrease of the blood glucose level from that before the administration ([2]; 30 min)
0: Primary irritation score, Cornea ([1]; 1 hour) | Primary irritation score, Iris ([1]; 1 hour) | Primary irritation score, Cornea ([1]; 3 hours) | Primary irritation score, Iris ([1]; 3 hours) | Primary irritation score, Cornea ([1]; 6 hours) | Primary irritation score, Iris ([1]; 6 hours) | Primary irritation score, Conjunctiva ([1]; 24 hours) | Primary irritation score, Cornea ([1]; 24 hours) | Primary irritation score, Iris ([1]; 24 hours) | Primary irritation score, Total ([1]; 24 hours) | Primary irritation score, Conjunctiva ([1]; 48 hours) | Primary irritation score, Cornea ([1]; 48 hours) | Primary irritation score, Iris ([1]; 48 hours) | Primary irritation score, Total ([1]; 48 hours) | Primary irritation score, Conjunctiva ([1]; 72 hours) | Primary irritation score, Cornea ([1]; 72 hours) | Primary irritation score, Iris ([1]; 72 hours) | Primary irritation score, Total ([1]; 72 hours) | Primary irritation score, Conjunctiva ([1]; 96 hours) | Primary irritation score, Cornea ([1]; 96 hours) | Primary irritation score, Iris ([1]; 96 hours) | Primary irritation score, Total ([1]; 96 hours) | Primary irritation score, Conjunctiva ([1]; 168 hours) | Primary irritation score, Cornea ([1]; 168 hours) | Primary irritation score, Iris ([1]; 168 hours) | Primary irritation score, Total ([1]; 168 hours)
4.0%: Percent decrease of the serum calcium level from before administration ([7]; 2 hrs)
19.1%: Percent decrease of the blood glucose level from that before the administration ([2]; 2 hrs)
